In patent US12258337B2, “Bicyclic CX3CR1 receptor agonists” (Board of Regents, The University of Texas System, priority 2019, dated 2025):

Tests used:
Format in all cases: cell-based
mCX3CR1 = target: T1, mCX3CR1 (Mus musculus, UniProt Q9Z0D9); test: Ga16 assay, CX3CR1 agonism, Ca2+ sensitive photo-protein readout (FLIPRTETRA); details: mouse CX3CR1 cell line
T1 construct: expressed in transfected cells; stably expresses a Ca2+ sensitive photo-protein
T1 sequence (Q9Z0D9 1-354): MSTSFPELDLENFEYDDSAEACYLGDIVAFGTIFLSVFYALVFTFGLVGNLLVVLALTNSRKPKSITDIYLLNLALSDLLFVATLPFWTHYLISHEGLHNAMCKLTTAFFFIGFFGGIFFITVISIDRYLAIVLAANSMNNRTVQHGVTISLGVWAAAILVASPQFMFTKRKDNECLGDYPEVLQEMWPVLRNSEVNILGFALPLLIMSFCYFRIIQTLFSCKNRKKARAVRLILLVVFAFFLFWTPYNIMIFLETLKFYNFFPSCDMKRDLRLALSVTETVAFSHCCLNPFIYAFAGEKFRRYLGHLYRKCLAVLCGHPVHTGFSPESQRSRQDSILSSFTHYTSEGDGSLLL
How it was run: (§1)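 Cells expressing human, mouse or rat CX3CR1 with a stably expressed Ca2+-sensitive photoprotein were loaded with 10 μM coelenterazine in tyrode buffer pH 7.4 for 3 h at room temperature. Agonist-mode luminescence kinetics were recorded for 90 s after compound injection on FLIPRTETRA. Dose-response runs were done in quadruplicate, with fractalkine as the reference agonist.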

rCX3CR1 = target: T2, rCX3CR1 (Rattus norvegicus, UniProt P35411); test: as above; details: rat CX3CR1 cell line
T2 construct: expressed in transfected cells; stably expresses a Ca2+ sensitive photo-protein
T2 sequence (P35411 1-354): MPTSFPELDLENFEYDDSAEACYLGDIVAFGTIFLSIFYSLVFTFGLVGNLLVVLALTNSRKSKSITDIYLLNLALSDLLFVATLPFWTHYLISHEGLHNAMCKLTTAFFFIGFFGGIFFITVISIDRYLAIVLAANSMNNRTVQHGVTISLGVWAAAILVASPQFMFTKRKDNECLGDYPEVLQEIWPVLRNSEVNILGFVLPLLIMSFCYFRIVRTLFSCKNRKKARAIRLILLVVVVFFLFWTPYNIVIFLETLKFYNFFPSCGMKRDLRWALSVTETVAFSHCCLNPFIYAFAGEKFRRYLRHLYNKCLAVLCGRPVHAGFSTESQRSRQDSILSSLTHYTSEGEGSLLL
How it was run: as §1

hCX3CR1 [1] = target: T3, hCX3CR1 (Homo sapiens, UniProt P49238); test: as above; parameters: expressed in transfected cells; stably expresses a Ca2+ sensitive photo-protein; details: human CX3CR1 cell line
T3 sequence (P49238 1-355): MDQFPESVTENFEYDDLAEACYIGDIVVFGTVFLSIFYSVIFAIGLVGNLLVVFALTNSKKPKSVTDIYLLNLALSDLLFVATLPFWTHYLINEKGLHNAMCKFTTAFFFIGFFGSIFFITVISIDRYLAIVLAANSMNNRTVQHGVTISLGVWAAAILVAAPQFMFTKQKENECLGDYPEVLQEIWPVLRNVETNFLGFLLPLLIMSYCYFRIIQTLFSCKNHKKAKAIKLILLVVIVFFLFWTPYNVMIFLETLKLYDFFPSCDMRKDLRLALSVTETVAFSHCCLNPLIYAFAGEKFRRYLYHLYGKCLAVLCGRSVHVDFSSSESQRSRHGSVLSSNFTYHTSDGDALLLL
How it was run: as §1

hCX3CR1 [2] = target: T3, hCX3CR1; test: ChAMPion assay (CHO ChAMPion/CX3CR1 K1.6, cAMP/CNG channel, photoprotein luminescence); parameters: expressed in transfected cells; stably expresses a Ca2+ sensitive photo-protein; details: ChAMPion assay, CHO ChAMPion/CX3CR1 K1.6, Forskolin 3 μM; read-out: hCX3CR1 agonism EC50
Method: Buffers and reagents. PBS (D-PBS without calcium and magnesium; EuroClone); Trypsin (Trypsin 0.05%, EDTA 0.02% in PBS; EuroClone); DMSO (Sigma); Tyrode buffer Ca^2+ free: in-house solution (130 mM NaCl, 5 mM KCl, 1 mM MgCl^2, 5 mM NaHCO3, 20 mM HEPES (pH 7.4); sterile filtered and autoclaved); Tyrode buffer 10 mM Ca^2+: in-house solution (130 mM NaCl, 5 mM KCl, 10 mM CaCl2), 1 mM MgCl2, 5 mM NaHCO3, 20 mM HEPES, in water at pH 7.4, sterile filtered); Coelenterazine, native (Biosynth); stock 10 mM; Agonist: Recombinant Human Fractalkine (CX3CL1) (PeproTech); stock: 10 μM in standard Tyrode buffer/BSA 01%; stored at −20° C.
Cell line. The final clone for the hCX3CR1 assay was CHO ChAMPion/CX3CR1 K1.6. ChAMPion technology is based on the co-expression of a Ca^2+ sensitive photoprotein and of a cyclic nucleotide-gated (CNG) channel acting as a cAMP biosensor in a CHO-K1 cell line. CNG channels are non-selective ligand gated cation channels that can be opened by the direct interaction with either cAMP or cGMP, at the intracellular C-terminus site of the channel. Channel opening allows the flux of extracellular calcium into the cell cytoplasm and its transient elevation can be recorded by means of several different calcium indicators. In the chAMPion system, the CNG channel has been modified to display sensitivity to cAMP levels in the physiological range. In addition the calcium influx through the opened channel is immediately detected by the recording of the photoprotein-emitted flash type luminescence signal.
The chAMPion cell line system can monitor the activation of transfected Gαi-coupled receptors, which elicit changes in 3,‘5’-adenosine cyclic monophosphate (cAMP) levels, which in turn is responsible for CNG opening and consequent Ca^2+ influx.
Assay protocol. Experiments were performed in 384 MTP format. Cells were seeded at 10,000 cells/well in 25 μL/well complete growth medium without selection antibiotics in 384-well plates. Twenty-four hours later, cells were assayed for the response to various compounds using the Ca^2+ sensitive photo-protein stably expressed in the cells as readout.
The experiment was performed in a 384-well format according to the following procedure: • 24h after seeding, pre-incubate the cells at room temperature for 1 hour. • Then remove the culture medium. • Load cells with 20 μL/well of Ca^2+ free tyrode buffer+ceolenterazine 5 μM. • Incubate cell plates for 4 hours at RT. • 10 μl/well of 3× concentrated compounds in Ca^2+ free tyrode buffer+Forskolin 9 μM (final Forskolin concentration=3 μM) are applied to the cells (at 10 μl/s). Ten minutes later a second injection is performed: 10 μl/well of Ca^2+ free tyrode buffer+BSA 0.04% (final BSA concentration=0.01%). Twenty minutes later a third injection is performed: 20 μl/well of 10 mM Ca^2+ tyrode buffer (final Ca^2+ concentration was 3.3 mM) and luminescence is recorded for 90 seconds.
Data from FLIPRTETRA measurements are analyzed with the Genedata Screener© software.

Row | Compound | EC50 (mCX3CR1) [µM] | EC50 (rCX3CR1) [µM] | EC50 (hCX3CR1 [1]) [µM] | EC50 (hCX3CR1 [2]) [µM]
1 | CCCN(C)CC1(CNC(=O)c2cc3c(s2)CCCCCC3)CCCC1 [Example 6, N-[[1-[[methyl(propyl)amino]methyl]cyclopentyl]methyl]-4,5,6,7,8,9-hexahydrocycloocta[b]thiophene-2-carboxamide] | 18.1 | 14.6 | 15.1 | 4.5
2 | CCN(CC)CC1(CNC(=O)c2cc3c(s2)CCCCCC3)CCCC1 [Example 12, N-[[1-(diethylaminomethyl)cyclopentyl]methyl]-4,5,6,7,8,9-hexahydrocycloocta[b]thiophene-2-carboxamide] | 9.1 | 12.2 | 13.3 | 6.2
3 | O=C(NCC1(CN2C[C@H]3CCO[C@@H]3C2)CCCC1)c1cc2c(s1)CCCCCC2 [Example 69, N-[[1-[[(3aR,6aS)-2,3,3a,4,6,6a-hexahydrofuro[2,3-c]pyrrol-5-yl]methyl]cyclopentyl]methyl]-4,5,6,7,8,9-hexahydrocycloocta[b]thiophene-2-carboxamide] | 33.6 | 20.4 | 18 | 5.5
4 | CN(C)CC1(CNC(=O)c2cc3c(s2)CCCCCC3)CCCCC1 [Example 22, N-[[1-[(dimethylamino)methyl]cyclohexyl]methyl]-4,5,6,7,8,9-hexahydrocycloocta[b]thiophene-2-carboxamide] | 15.1 | 13.7 | 11.5 | 1.3
5 | CC(CNC(=O)c1cc2c(s1)CCCCCC2)CN(C)C (stereo not shown) [Example 3, N-[3-(dimethylamino)-2-methylpropyl]-4,5,6,7,8,9-hexahydrocycloocta[b]thiophene-2-carboxamide] | 75.1 | 77.2 | 21 | 30
6 | CN(CCO)CC1(CNC(=O)c2cc3c(s2)CCCCCCC3)CCCC1 [Example 29, N-[[1-[[2-hydroxyethyl(methyl)amino]methyl]cyclopentyl]methyl]-5,6,7,8,9,10-hexahydro-4H-cyclonona[b]thiophene-2-carboxamide] | 46.3 | 47 | 18.7 | 4.8
7 | CC(C)(CNC(=O)c1cc2c(s1)CCCCCCC2)CN1CCCC1 [Example 24, N-(2,2-dimethyl-3-pyrrolidin-1-ylpropyl)-5,6,7,8,9,10-hexahydro-4H-cyclonona[b]thiophene-2-carboxamide] | 50.9 | 59.9 | 24.6 | 10.6
8 | CN(C)CC(C)(C)CN(C)C(=O)c1cc2c(s1)CCCCCC2 [Example 7, N-[3-(dimethylamino)-2,2-dimethylpropyl]-N-methyl-4,5,6,7,8,9-hexahydrocycloocta[b]thiophene-2-carboxamide] | 26.1 | 44.5 | 15.7 | 9.9
9 | O=C(NCC1(CN2CCCC2)CCCCC1)c1cc2c(s1)CCCCCC2 [Example 18, N-[[1-(pyrrolidin-1-ylmethyl)cyclohexyl]methyl]-4,5,6,7,8,9-hexahydrocycloocta[b]thiophene-2-carboxamide] | 24.9 | 23.7 | 11 | 0.94
10 | O=C(NCC1(CN2CCCC2)CC1)c1cc2c(s1)CCCCCC2 [Example 4, N-[[1-(pyrrolidin-1-ylmethyl)cyclopropyl]methyl]-4,5,6,7,8,9-hexahydrocycloocta[b]thiophene-2-carboxamide] | 16.2 | 15.4 | 14.6 | 2.8
